Results reported in US12629365B2, “Pharmaceutical compositions of 5-HT6 receptor antagonist” (SUVEN LIFE SCIENCES LIMITED, priority 2016, dated 2026).

Assay: BCS classification
Format: physicochemical
Conditions: based on our experimental results

BCS classification: class I
Structure (SMILES): COc1ccc2c(c1)c(CN1CCN(C)CC1)cn2S(=O)(=O)c1ccccc1Br [Compound 1, 1-[(2-Bromophenyl)sulfonyl]-5-methoxy-3-[(4-methyl-1-piperazinyl)methyl]-1H-indole dimesylate monohydrate]
